Measured values published in PubChem BioAssay AID248 (DTP/NCI, 2004).
Several values for one entry are separate records, joined by “and”; a condition that tells them apart may be missing. Identical values can stand only once. Inconclusive results and toxic doses are left out. No stated cut-off is given here; in the data, active means T/C of 150% or more; inactive means T/C below 125%.

System: L1210 leukemia ip in BDF1 mice, survival T/C
Test: NCI In Vivo Anticancer Drug Screen. Data for tumor model L1210 Leukemia (intraperitoneal) in B6D2F1 (BDF1) mice
Conditions: endpoint: mean survival time, higher = longer survival
Summary of the method: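 Each compound was tested against a transplantable tumor grown in mice. The endpoint was survival, with treated animals benchmarked against vehicle controls as a simple ratio.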

[1] = dose: 100.0 mg/kg/injection, schedule: Q01DX001 (ip), vehicle: saline
[2] = dose: 200.0 mg/kg/injection, schedule: Q01DX001 (ip), vehicle: saline
[3] = dose: 400.0 mg/kg/injection, schedule: Q01DX001 (ip), vehicle: saline
[4] = dose: 12.5 mg/kg/injection, schedule: Q01DX009 (ip), vehicle: Klucel (hydroxypropylcellulose) (HPC)
[5] = dose: 25.0 mg/kg/injection, schedule: Q01DX009 (ip), vehicle: Klucel (hydroxypropylcellulose) (HPC)
[6] = dose: 50.0 mg/kg/injection, schedule: Q01DX009 (ip), vehicle: Klucel (hydroxypropylcellulose) (HPC)
[7] = dose: 100.0 mg/kg/injection, schedule: Q04DX003 (ip), vehicle: Klucel (hydroxypropylcellulose) (HPC)
[8] = dose: 200.0 mg/kg/injection, schedule: Q04DX003 (ip), vehicle: Klucel (hydroxypropylcellulose) (HPC)
[9] = dose: 400.0 mg/kg/injection, schedule: Q04DX003 (ip), vehicle: Klucel (hydroxypropylcellulose) (HPC)
[10] = dose: 100.0 mg/kg/injection, schedule: Q01DX009 (ip), vehicle: gum acacia
[11] = dose: 200.0 mg/kg/injection, schedule: Q01DX009 (ip), vehicle: gum acacia
[12] = dose: 400.0 mg/kg/injection, schedule: Q01DX009 (ip), vehicle: gum acacia
[13] = dose: 100.0 mg/kg/injection, schedule: Q04DX003 (ip), vehicle: saline with Tween-80
[14] = dose: 200.0 mg/kg/injection, schedule: Q04DX003 (ip), vehicle: saline with Tween-80
[15] = dose: 400.0 mg/kg/injection, schedule: Q04DX003 (ip), vehicle: saline with Tween-80
[16] = dose: 100.0 mg/kg/injection, schedule: Q01DX001 (ip), vehicle: Klucel (hydroxypropylcellulose) (HPC)
[17] = dose: 200.0 mg/kg/injection, schedule: Q01DX001 (ip), vehicle: Klucel (hydroxypropylcellulose) (HPC)
[18] = dose: 100.0 mg/kg/injection, schedule: Q01DX009 (ip), vehicle: saline with Tween-80
[19] = dose: 100.0 mg/kg/injection, schedule: Q04DX002 (ip), vehicle: saline with Tween-80
[20] = dose: 200.0 mg/kg/injection, schedule: Q01DX009 (ip), vehicle: saline with Tween-80
[21] = dose: 200.0 mg/kg/injection, schedule: Q04DX002 (ip), vehicle: saline with Tween-80
[22] = dose: 400.0 mg/kg/injection, schedule: Q01DX009 (ip), vehicle: saline with Tween-80
[23] = dose: 400.0 mg/kg/injection, schedule: Q04DX002 (ip), vehicle: saline with Tween-80
[24] = dose: 100.0 mg/kg/injection, schedule: Q01DX001 (ip), vehicle: other
[25] = dose: 200.0 mg/kg/injection, schedule: Q01DX001 (ip), vehicle: other

Measured: T/C

Cn1c2c(c(=O)n(C)c1=O)C(=Nc1ccccc1)C(=O)N2
inactive: [1] 101 % of control | [2] 104 % of control | [3] 96 % of control

CN1CCN(C(c2ccccc2)c2ccccc2)CC1
inactive: dose: 3.12 mg/kg/injection, schedule: Q01DX009 (ip), vehicle: Klucel (hydroxypropylcellulose) (HPC) 97 % of control | dose: 6.25 mg/kg/injection, schedule: Q01DX009 (ip), vehicle: Klucel (hydroxypropylcellulose) (HPC) 102 % of control | [4] 97 % of control | [5] 108 % of control | dose: 25.0 mg/kg/injection, schedule: Q04DX003 (ip), vehicle: Klucel (hydroxypropylcellulose) (HPC) 97 % of control | [6] 103 % of control | dose: 50.0 mg/kg/injection, schedule: Q04DX003 (ip), vehicle: Klucel (hydroxypropylcellulose) (HPC) 92 % of control

CC(C)(C)NC(=O)C1C(c2ccccc2)C1c1ccccc1 (stereo not drawn)
inactive: dose: 100.0 mg/kg/injection, schedule: Q04DX002 (ip), vehicle: Klucel (hydroxypropylcellulose) (HPC) 90 % of control | dose: 200.0 mg/kg/injection, schedule: Q04DX002 (ip), vehicle: Klucel (hydroxypropylcellulose) (HPC) 113 % of control | dose: 400.0 mg/kg/injection, schedule: Q04DX002 (ip), vehicle: Klucel (hydroxypropylcellulose) (HPC) 100 % of control

CCCCOc1ccc(C=Nc2ccc(C)cc2)cc1
inactive: [4] 110 % of control | [5] 109 % of control | [6] 103 % of control | dose: 100.0 mg/kg/injection, schedule: Q01DX009 (ip), vehicle: Klucel (hydroxypropylcellulose) (HPC) 93 % of control | [7] 97 % of control | [8] 95 % of control | dose: 400.0 mg/kg/injection, schedule: Q01DX009 (ip), vehicle: Klucel (hydroxypropylcellulose) (HPC) 92 % of control | [9] 107 % of control

O=C(COc1cccc(Cl)c1)Nc1ccc(Cl)cc1
inactive: [10] 86 % of control | [11] 86 % of control | [12] 87 % of control

CCC(CC)C(O)C(C)C(C)O (stereo not drawn)
inactive: [13] 97 % of control | [14] 113 % of control | [15] 97 % of control

CCCCCCCCOC(=O)C1=NC=NC1=[N+]=[N-]
inactive: dose: 5.0 mg/kg/injection, schedule: Q01DX001 (ip), vehicle: other 107 % of control | dose: 10.0 mg/kg/injection, schedule: Q01DX001 (ip), vehicle: other 110 % of control | dose: 20.0 mg/kg/injection, schedule: Q01DX001 (ip), vehicle: other 104 % of control | dose: 40.0 mg/kg/injection, schedule: Q01DX001 (ip), vehicle: other 101 % of control

Nc1nnnn1C(=O)NCCCl
inactive: [16] 111 % of control | [17] 97 % of control | dose: 400.0 mg/kg/injection, schedule: Q01DX001 (ip), vehicle: Klucel (hydroxypropylcellulose) (HPC) 94 % of control

Cc1ccc(C(=O)c2ccccc2C(=O)O)cc1C
inactive: [18] 90 % of control | [19] 93 % of control | [20] 93 % of control | [21] 114 % of control | [22] 87 % of control | [23] 101 % of control

OC1CC2CC1C=C2c1ccccc1 (stereo not drawn)
inactive: [13] 102 % of control | [14] 86 % of control | [15] 91 % of control

CC(C)(C)C1CCC2SC(C)(C(C)(C)C)CC(C(C)(C)C)C2C1 (stereo not drawn)
inactive: dose: 100.0 mg/kg/injection, schedule: Q01DX001 (ip), vehicle: saline with Tween-80 104 % of control | dose: 200.0 mg/kg/injection, schedule: Q01DX001 (ip), vehicle: saline with Tween-80 98 % of control | dose: 400.0 mg/kg/injection, schedule: Q01DX001 (ip), vehicle: saline with Tween-80 91 % of control

CC(C)(C)NC(=O)Oc1ccccc1C(=O)Nc1ccccc1
inactive: dose: 50.0 mg/kg/injection, schedule: Q01DX009 (ip), vehicle: saline with Tween-80 97 % of control and 103 % of control | [19] 101 % of control and 103 % of control | [21] 95 % of control and 98 % of control | [23] 92 % of control

CCOc1ccc(NC(=O)OC(C)C)cc1
inactive: [7] 89 % of control | [8] 94 % of control | [9] 103 % of control

Cc1ccccc1N=Nc1c(O)n(-c2ccccc2)c(=S)n(-c2ccccc2)c1=O
inactive: dose: 37.5 mg/kg/injection, schedule: Q01DX001 (ip), vehicle: saline with Tween-80 99 % of control | dose: 75.0 mg/kg/injection, schedule: Q01DX001 (ip), vehicle: saline with Tween-80 90 % of control | dose: 150.0 mg/kg/injection, schedule: Q01DX001 (ip), vehicle: saline with Tween-80 99 % of control

COC1OC2COc3ccccc3OC2C(N=C(N)N[N+](=O)[O-])C1O (stereo not drawn)
inactive: [10] 97 % of control | [11] 100 % of control | [12] 95 % of control

O=C(O)CCCN1C(=O)CCC1=O
inactive: dose: 100.0 mg/kg/injection, schedule: Q04DX003 (ip), vehicle: saline 97 % of control | dose: 200.0 mg/kg/injection, schedule: Q04DX003 (ip), vehicle: saline 95 % of control | dose: 400.0 mg/kg/injection, schedule: Q04DX003 (ip), vehicle: saline 106 % of control

O=C(NO)N/N=C/c1ccc(/C=N/NC(=O)NO)cc1
inactive: [24] 100 % of control | [18] 101 % of control | dose: 100.0 mg/kg/injection, schedule: Q04DX003 (ip), vehicle: other 104 % of control | [25] 100 % of control | [20] 95 % of control | dose: 200.0 mg/kg/injection, schedule: Q04DX003 (ip), vehicle: other 95 % of control | dose: 400.0 mg/kg/injection, schedule: Q01DX001 (ip), vehicle: other 102 % of control | [22] 101 % of control | dose: 400.0 mg/kg/injection, schedule: Q04DX003 (ip), vehicle: other 96 % of control

S=C([S][Sn]([c]1ccccc1)([c]1ccccc1)[c]1ccccc1)N1CCOCC1
inactive: [7] 100 % of control | [8] 96 % of control | [9] 94 % of control

O=C(O)c1cc(Br)c(-c2c(Br)cc(C(=O)O)cc2[N+](=O)[O-])c([N+](=O)[O-])c1
inactive: dose: 50.0 mg/kg/injection, schedule: Q01DX001 (ip), vehicle: Klucel (hydroxypropylcellulose) (HPC) 95 % of control | [16] 106 % of control | [17] 95 % of control

Nc1ccccc1SC(CC(=O)c1ccc(-c2ccccc2)cc1)c1ccco1 (stereo not drawn)
inactive: [18] 94 % of control | [19] 105 % of control | [20] 91 % of control | [21] 102 % of control | [22] 91 % of control | [23] 91 % of control

CCOC(=O)C1C(O)CC2COC(=O)C2C1c1ccc(OC(C)=O)cc1 (stereo not drawn)
inactive: [24] 100 % of control | [25] 95 % of control

CN(C(=O)c1cc([N+](=O)[O-])ccc1O)c1ccccc1
inactive: [1] 98 % of control | [2] 95 % of control | [3] 101 % of control
